Test results reported in patent US20230116703A1, “NOVEL ERGOLINES AND METHODS OF TREATING MOOD DISORDERS” (priority 2021, published 2023).
Read-outs that look alike come from different tables or passages of the source.

What was measured:
Alpha2A receptor = biological target: T1, Alpha2A receptor (Homo sapiens, UniProt P08913); test: FLIPR Ca^2+ flux agonist assay at Alpha2A; assay type: cell-based
T1 sequence (P08913 1-465): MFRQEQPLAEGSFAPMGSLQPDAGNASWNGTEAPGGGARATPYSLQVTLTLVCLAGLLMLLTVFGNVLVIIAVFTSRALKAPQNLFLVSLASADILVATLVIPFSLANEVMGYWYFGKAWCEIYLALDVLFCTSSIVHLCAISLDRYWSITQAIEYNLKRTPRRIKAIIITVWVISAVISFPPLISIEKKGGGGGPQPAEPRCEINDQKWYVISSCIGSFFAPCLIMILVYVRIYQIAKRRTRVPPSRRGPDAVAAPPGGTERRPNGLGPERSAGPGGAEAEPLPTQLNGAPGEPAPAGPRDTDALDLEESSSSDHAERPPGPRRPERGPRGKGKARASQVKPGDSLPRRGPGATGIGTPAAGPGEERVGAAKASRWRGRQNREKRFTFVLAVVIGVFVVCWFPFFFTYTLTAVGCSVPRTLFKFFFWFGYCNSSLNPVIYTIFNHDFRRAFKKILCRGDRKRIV
Protocol: Functional Assays at Adrenergic and Dopamine Receptors. Agonist activity at Alpha1A, Alpha2A, D1, and D2 receptors was determined using a FLIPR Ca^2+ flux assay at WuXi AppTec (Hong Kong) Limited according to their standard protocols. Briefly, stably transfected cells expressing the receptor of interest were grown and plated in a 384 well plate and incubated at 37° C. and 5% CO2 overnight. A solution of 250 mM probenecid in 1 mL FLIPR assay buffer was prepared fresh. This was combined with a fluorescent dye (Fluo-4 Direct™) to make a final assay concentration of 2.5 mM. […] The fluorescent dye was then added to the assay plate along with assay buffer to a final volume of 40 μL. The cell plate was incubated for 50 min at 37° C. and 5% CO2 and placed into the FLIPR Tetra along with the compound plate. 10 μL of references and compounds were then transferred from the compound plate into the cell plate and the fluorescent signal was read.

5-HT2B receptor = biological target: T2, 5-HT2B receptor (Homo sapiens, UniProt P41595); test: 5-HT2B receptor radioligand binding with [^3H]LSD
T2 construct: host or cells: HEK293

Sprague Dawley rats = test: Forced swim test (FST) in rats; assay type: in vivo, rat; details: for efficacy in FST compared to positive control desipramine (in words): 0.032 mg/kg, SC
Protocol: Compound 1 induced antidepressant-like effects in the forced swim test (FST) in rats with a 23.5-h pre-treatment time (FIG. 2).
Animals. Male Sprague Dawley rats, aged 9-10 weeks, were used in this experiment. Animals were housed in groups of 2 under controlled temperature (22±3° C.) and relative humidity (30-70%) conditions, with 12-hour light/dark cycles, and with ad libitum food and water. This study was carried out in strict accordance with the requirements of the Committee for the Purpose of Control and Supervision of Experiments on Animals (CPCSEA), India. All efforts were made to minimize suffering.
Drugs and Drug Administration. Compound 1 was synthesized as described above. Desipramine HCl was commercially obtained. The test compound, saline vehicle, and the positive control desipramine were administered subcutaneously (SC), with doses calculated based on the freebase. Normal saline was used as the vehicle. All compounds were administered at a volume of 5 mL/kg. The test compound and vehicle were administered 0.5 h after the start of the training swim (Swim 1) and 23.5 h before the test swim (Swim 2). Desipramine was administered 3 times, at 23.5 h, 5 h, and 1 h before the test swim (Swim 2), each time at a dose of 20 mg/kg. Group size was n=10 per treatment.
Forced Swim Test (FST). […] Rats were handled for about 2 min daily for the 5 days prior to the beginning of the experimental procedure. On the first day of the experiment (i.e., Day 0), post randomization, training swim sessions (Swim 1) were conducted between 12:00 and 18:00 h with all animals by placing rats in individual glass cylinders (46 cm tall×20 cm in diameter) containing 23-25° C. water 30 cm deep for 15 minutes. At the conclusion of Swim 1, animals were dried with paper towels, placed in heated drying cages for 15 minutes, and then returned to their home cages. […]
Behavioral scoring was conducted by observers who were blind to the treatment groups. Animals were continuously observed during Swim 2 and the total time spent engaging in the following behaviors was recorded: immobile, swimming, and climbing. […]

[1] = Ca^2+ flux, agonist, read-out: Alpha 2A EC50

T2 sequence (P41595 whole entry): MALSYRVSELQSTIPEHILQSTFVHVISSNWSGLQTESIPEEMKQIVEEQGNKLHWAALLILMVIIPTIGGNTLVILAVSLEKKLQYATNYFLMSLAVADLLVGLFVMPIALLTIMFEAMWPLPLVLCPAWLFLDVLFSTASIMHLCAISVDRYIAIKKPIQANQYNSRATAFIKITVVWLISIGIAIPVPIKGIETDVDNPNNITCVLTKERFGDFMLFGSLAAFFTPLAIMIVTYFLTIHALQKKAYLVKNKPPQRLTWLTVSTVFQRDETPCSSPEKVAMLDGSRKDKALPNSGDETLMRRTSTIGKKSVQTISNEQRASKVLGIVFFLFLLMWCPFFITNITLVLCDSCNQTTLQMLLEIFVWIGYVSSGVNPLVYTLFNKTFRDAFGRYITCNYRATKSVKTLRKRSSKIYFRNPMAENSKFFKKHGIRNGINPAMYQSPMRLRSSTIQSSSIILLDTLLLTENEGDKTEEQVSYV

SMILES | EC50 (Alpha2A receptor) [nM] | Ki (5-HT2B receptor) [nM] | efficacy in FST compared to positive control desipramine (in words) (Sprague Dawley rats) | EC50 (Alpha2A receptor; [1]) [nM] | immobility time relative to vehicle (in words) (Sprague Dawley rats; rat FST, 23.5 h after a single SC administration)
CCN(CC)C(=O)[C@@H]1C=C2c3cccc4[nH]cc(c34)C[C@H]2N(CCCF)C1 [Compound 2, (6aR,9R)—N,N-diethyl-7-(3-fluoropropyl)-4,6,6a,7,8,9-hexahydroindolo[4,3-fg]quinoline-9-carboxamide] | 1000 | 4.1 | as efficacious as the positive control desipramine | – | –
CCN(CC)C(=O)[C@@H]1C=C2c3cccc4[nH]cc(c34)C[C@H]2N(Cc2ccccc2OC)C1 [Compound 10, (6aR,9R)—N,N-diethyl-7-(2-methoxybenzyl)-4,6,6a,7,8,9-hexahydroindolo[4,3-fg]quinoline-9-carboxamide] | – | – | – | > 31600 | –
CCN(CC)C(=O)[C@@H]1C=C2c3cccc4[nH]cc(c34)C[C@H]2N(CCc2ccccc2OC)C1 [Compound 11, (6aR,9R)—N,N-diethyl-7-(2-methoxyphenethyl)-4,6,6a,7,8,9-hexahydroindolo[4,3-fg]quinoline-9-carboxamide] | – | – | – | > 31600 | –
CCCN1C[C@H](C(=O)N[C@H](C)CC)C=C2c3cccc4[nH]cc(c34)C[C@H]21 [Compound 3, (6aR,9R)—N—((R)-sec-butyl)-7-propyl-4,6,6a,7,8,9-hexahydroindolo[4,3-fg]quinoline-9-carboxamide] | 3640 | 4.09 | – | – | –
CCCN1C[C@H](C(=O)N2[C@@H](C)C[C@@H]2C)C=C2c3cccc4[nH]cc(c34)C[C@H]21 [Compound 4, ((2S,4S)-2,4-dimethylazetidin-1-yl)((6aR,9R)-7-propyl-4,6,6a,7,8,9-hexahydroindolo[4,3-fg]quinolin-9-yl)methanone] | 1080 | 17.7 | as efficacious as the positive control desipramine | – | –
CCCN1C[C@H](C(=O)NC(CC)CC)C=C2c3cccc4[nH]cc(c34)C[C@H]21 [Compound 6, (6aR,9R)—N-(pentan-3-yl)-7-propyl-4,6,6a,7,8,9-hexahydroindolo[4,3-fg]quinoline-9-carboxamide] | – | 3.33 | – | – | –
CCCN1C[C@H](C(=O)N(CC)CC)C=C2c3cccc4[nH]cc(c34)C[C@H]21 [Compound 1, (6aR,9R)—N,N-diethyl-7-propyl-4,6,6a,7,8,9-hexahydroindolo[4,3-fg]quinoline-9-carboxamide] | 42.2 | – | – | – | reduced immobility time
